Publication PMC9323733, “Efficacy of Vafidemstat in Experimental Autoimmune Encephalomyelitis Highlights the KDM1A/RCOR1/HDAC Epigenetic Axis in Multiple Sclerosis” (Pharmaceutics, 2022)

Tests used:
Assay type in all cases: in vivo, mouse
[1] = tested on: C57BL/6 mice with chronic EAE; assay: Chronic EAE induced by MOG35–55, clinical score; conditions: for mean clinical score: EAE effector phase, p.o. 5 days from day 12, FTY720 1.0 mg/kg
Procedure: Mice also received i.p. injections of 200 ng of pertussis toxin on days 0 and 2 [32]. Immunized mice were randomly distributed in different groups. […] MPTP is a prodrug which is converted to the neurotoxin 1-methyl-4-phenylpyridinium (MPP+) by MAO-B in vivo.
Compounds were administered once daily for five consecutive days in two cycles, from day 12 to 16 and from day 19 to 23 post-immunization. […] HPβCD was included to facilitate dissolution. Mice were scored daily for signs of EAE according to the following clinical scoring system: 0, no clinical signs; 0.5, partial loss of tail tonicity; 1, complete loss of tail tonicity; 2, flaccid tail and abnormal gait; 3, complete hind leg paralysis; 4, hind leg paralysis with hind body paresis; 5, hind and foreleg paralysis; and 6, death. Intermediate phenotypes were scored as a half integer. Animals were sacrificed when they kept a score of 5 more than 24 h. Investigators which administered the compounds and scored the animals were blinded to the treatments.

spinal cord of EAE mice = assay: EAE, histopathology of spinal cord (demyelination plaques, infiltration); conditions: ORY-2001 0.5 mg/kg; for infiltrating/demyelinating plaques in spinal cord: day 17, FTY720 1.0 mg/kg
Procedure: Cervical and lumbar spinal cord segments of spinal cords obtained from EAE mice sacrificed on day 17 or 26 post-immunization were divided and processed for inclusion and sectioning in paraffin and for inclusion in an optimal cutting temperature (OCT) compound and future cryosectioning of the samples. Spinal cord segments were immediately fixed with buffered 10% formalin for 48 h, dehydrated and included in paraffin using standard techniques. For a preliminary analysis, transversal sections (4 µm thickness) were stained with Luxol fast blue, cresyl violet, and hematoxylin following the Klüver–Barrera technique and were analyzed for the presence of areas of demyelination and cell infiltration using a light microscope (Leica, DM2000). After hematoxylin/eosin staining in the TMEV model, cell infiltration in the cervical and thoracic spinal cord was evaluated according to the criteria of Mansilla et al.: score 0: no lesion; 1: cellular infiltration only in the meninges; 2: very discrete and superficial infiltrates in the parenchyma; 3: moderate infiltration (less than 25%) in the white matter; 4: severe infiltration (less than 50%) in the white matter; and 5: high severe infiltration (>50%) in the white matter. The remaining spinal cord segments from EAE mice and from mice of the TMEV model were fixed with 4% paraformaldehyde/0.1 M phosphate buffer pH 7.4 for 12 h at 4 °C, cryopreserved in 30% sucrose in PBS for 24 h, embedded in OCT in liquid nitrogen, and stored at −80 °C prior to cryosectioning and immunohistochemistry. 20 and 30 µm-thick transversal cryostat sections from Tissue Tek embedded tissue were obtained from EAE and TMEV samples, respectively, and kept in a cryoprotection solution (30% ethylene glycol, 10 mg/mL polyvinylpyrrolidone-40 (PVP-40), 300 mg/mL sucrose in 60 mM PB) at −20 °C. Mouse #6 from the TMEV + vehicle group died on day 77 post-infection and was therefore not included.

[2] = tested on: spleen and lymph nodes of EAE mice; assay: EAE, cell number in spleen and lymph nodes, flow cytometry of CD4 T cells; conditions: ORY-2001 0.5 mg/kg; for CD4+ T cell population of the lymph nodes / cellularity in lymph nodes / number of effector T cells in lymph nodes: FTY720 1.0 mg/kg
From the text: For mechanistic studies in the EAE model, animals were divided into two groups, and samples were collected on day 26 post-immunization (sub-chronic phase), 3 days after the last dose, or on day 17 post-immunization for evaluating the effector phase. For this, mice were euthanized by intracardiac perfusion with saline (0.9%NaCl in H2O MilliQ) after pentobarbital anesthesia (Doletal), and blood samples, spleen, draining lymph nodes (DLNs: cervical, inguinal and axillary), brain, and spinal cord were removed. Serum samples were used for autoantibodies determination. Single-cell suspensions were obtained from spleen or pooled DLNs and used for the determination of cell number and auto-reactive and inflammatory responses, as described later. Brain and spinal segments of the cervical and lumbar regions were prepared separately and processed for RNA isolation, protein extraction, and histopathological analysis. Proteins were extracted from cervical and lumbar segments of spinal cord and brain from EAE mice via homogenization (50 mg tissue/mL) in lysis buffer (50 mM Tris-HCl, pH 7.4, 0.5 mM DTT, and 10 µg/mL proteinase inhibitors PMSF, pepstatin, and leupeptin). Samples were centrifuged (20.000× g, 15 min, 4 °C), and the supernatants were assayed for protein concentration (using Bradford method) and for cytokine/chemokine contents by using specific sandwich ELISAs according to manufacturer’s recommendations (BD Bioscience, Heidelberg, Germany and Peprotech, London, UK). In the TMEV model on day 86 after infection, mice were anesthetized and perfused transcardially, as described above. Spinal cords were obtained via extrusion with saline and prepared for further study.
For the identification of naïve, memory, and effector T cells, lymph nodes were isolated from different EAE groups at the peak of the disease. Cells were collected and distributed into polystyrene tubes for flow cytometry at 0.5 × 10^6 cells/tube and washed twice with washing buffer (10% FBS, 1% sodium azide in PBS; 300 g 5 min 4 °C). Before specific staining, cells were blocked with mouse BD Fc block to avoid nonspecific binding to Fc- receptors and marked with 7-AAD (7-amino-actinomycin D, Calbiochem, San Diego, CA, USA) to distinguish dead cells. Then, cells were incubated with PerCP/Cy5.5 conjugated anti-CD4, APC conjugated anti- CD62L (2 µg/mL), and PE conjugated anti-CD44 mAbs (0.5 µg/mL), following manufacturer’s recommendations (BioLegend) (Supplementary Materials Table S4). Briefly, after washing, cells were stained for 30 min at 4 °C, washed again, and analyzed in a FACSCalibur flow cytometer (BD Pharmingen, Le Pont-de-Claix, France). We used isotype-matched antibodies as controls.

[3] = EAE experiment 2, 0.5 or 1 mg/kg ORY-2001

SMILES: Nc1nnc(CN[C@@H]2C[C@H]2c2ccc(OCc3ccccc3)cc2)o1 [ORY-2001]
- mean clinical score ([1]; ORY-2001 0.5 mg/kg): reduced the mean clinical score
- animals with mild clinical signs (clinical score ≤ 2) ([1]; EAE experiment 1 (severe), p.o. ORY-2001 1 mg/kg): 60%
- effect on disease severity ([1]; EAE experiment 1 (severe), p.o. ORY-2001 1 mg/kg, ORY-LSD1 180 µg/kg): significantly reduced disease severity
- animals with severe manifestations/signs of the disease ([1]; EAE experiment 1 (severe), p.o. ORY-2001 1 mg/kg, ORY-LSD1 180 µg/kg (maximum clinical score ≥ 4.0)): 10%
- mean maximum clinical score ([1]; EAE experiment 1 (severe), p.o. ORY-2001 1 mg/kg, ORY-LSD1 180 µg/kg, days 12-16 and 19-23): 1.8
- mice with no or only mild clinical signs at the end of the study ([1]; EAE experiment 2): 70–80%
- effect on clinical course / disease severity ([1]; EAE experiment 2 (mild), p.o. ORY-2001 0.05, 0.5, 1 mg/kg, ORY-LSD1 90, 180 µg/kg, rasagiline 3 mg/kg): significantly reduced disease severity
- mice with mild clinical signs [1, 3]: 50%
- mice with no clinical signs [1, 3]: 10%
- duration of protection after short term treatment ([1]; EAE experiment 2, 40 days after disease onset): long-lasting protective effect
- animals with severe signs (maximum clinical score 3.5–6) ([1]; EAE experiment 2, highest dose tested): none
- relapse ([1]; EAE experiment 2, lowest dose 0.05 mg/kg): suffered a relapse during the last week of follow-up
- clinical signs at the peak of the disease ([1]; EAE sub-chronic phase, to day 26, p.o. ORY-2001 0.5 mg/kg, ORY-LSD1 180 µg/kg): reduced the clinical signs
- severity of symptoms in treated mice ([1]; EAE sub-chronic phase, ORY-2001 0.5 mg/kg): displayed only mild symptoms
- infiltrating/demyelinating plaques in spinal cord (spinal cord of EAE mice): reduced the presence of infiltrating/demyelinating plaques in both cervical and lumbar segments
- plaques with inflammatory infiltrates and areas of demyelination (spinal cord of EAE mice; day 26, lumbar and cervical, ORY-LSD1 180 µg/kg): significantly reduced the number of plaques
- cellularity in spleen ([2]; day 17): increased it significantly in the spleen
- CD4+ T cell population of the lymph nodes ([2]; day 17): increased the CD^4+ T cell population of the lymph nodes
- cellularity in lymph nodes ([2]; day 17): increased the cellularity in lymph nodes
- number of effector T cells in lymph nodes ([2]; day 17): significantly increased
- number of immune cells in spleen and lymph nodes ([2]; day 26, ORY-LSD1 180 µg/kg): significant increase in the number of immune cells

SMILES: CCCCCCCCc1ccc(CCC(N)(CO)CO)cc1 [FTY720, Fingolimod, reference compound]
- mean clinical score ([1]; ORY-2001 0.5 mg/kg): reduced the mean clinical score
- infiltrating/demyelinating plaques in spinal cord (spinal cord of EAE mice): reduced the number and size of demyelinating plaques in cervical but not in lumbar sections
- CD4+ T cell population of the lymph nodes ([2]; day 17): increased the CD^4+ T cell population of the lymph nodes
- cellularity in lymph nodes ([2]; day 17): increased the cellularity in lymph nodes
- number of effector T cells in lymph nodes ([2]; day 17): significantly increased
